These results are taken from patent US20220326229A1, “ASSAY FOR REAL-TIME SIMULTANEOUS RECRUITMENT OF ARRESTIN ISOFORMS TO G PROTEIN-COUPLED RECEPTORS” (Purdue Research Foundation, priority 2021, published 2022).

The target in one experiment is T1, δ opioid receptor (DOR) (Mus musculus, UniProt P32300).
T1 construct: influenza signal peptide (N); linker […]; expressed in transfected cells; host or cells: HEK293
Description: ClickArr assay: simultaneous recruitment of Barr1 (508 nm) and Barr2 (620 nm) to DOR in triply transfected HEK293 cells. The format is cell-based.

In experiment [1] the target is T2, dopamine D2 receptor (D2R) (Homo sapiens, UniProt P14416).
T2 construct: linker […]; expressed in transfected cells; host or cells: HEK293
Format: cell-based. The following applies: FIG. 7B; single replicate, pilot experiment.

Another experiment has as its target D2R (Homo sapiens, UniProt P14416). The following applies: cited from earlier work.
Experiment [2] deals with T3, Signal peptide + FLAG tag-KOR-GSSGGGGSGGGGSGGGGSGGGG-CBGct(395-542) (mouse).
T3 construct: also called kappa opioid receptor-CBGct; kappa opioid receptor
T3 chain: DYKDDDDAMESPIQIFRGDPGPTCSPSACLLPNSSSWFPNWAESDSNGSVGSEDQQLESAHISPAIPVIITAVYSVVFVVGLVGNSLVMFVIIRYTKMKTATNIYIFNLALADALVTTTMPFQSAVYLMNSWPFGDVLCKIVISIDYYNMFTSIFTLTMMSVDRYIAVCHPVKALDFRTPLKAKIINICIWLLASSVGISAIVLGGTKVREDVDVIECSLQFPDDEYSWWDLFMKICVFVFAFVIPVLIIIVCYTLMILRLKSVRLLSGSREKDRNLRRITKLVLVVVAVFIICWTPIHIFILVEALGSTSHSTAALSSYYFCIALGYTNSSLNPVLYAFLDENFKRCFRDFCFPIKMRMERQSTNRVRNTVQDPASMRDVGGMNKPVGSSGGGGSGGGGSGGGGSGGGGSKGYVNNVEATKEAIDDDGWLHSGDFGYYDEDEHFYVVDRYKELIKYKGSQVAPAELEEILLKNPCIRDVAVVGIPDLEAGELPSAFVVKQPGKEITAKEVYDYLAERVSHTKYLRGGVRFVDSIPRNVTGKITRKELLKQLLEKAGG
Description: split click beetle luciferase complementation (ClickArr), triply transfected cells, dynorphin17 dose-response, single replicate.

In experiment [3] the target is T4, Signal peptide + FLAG tag-DOR-GSSGGGGSGGGGSGGGGSGGGG-CBGct(395-542) (mouse (Mus musculus)).
T4 construct: also called optimized DOR construct; DOR-CBGct
T4 chain: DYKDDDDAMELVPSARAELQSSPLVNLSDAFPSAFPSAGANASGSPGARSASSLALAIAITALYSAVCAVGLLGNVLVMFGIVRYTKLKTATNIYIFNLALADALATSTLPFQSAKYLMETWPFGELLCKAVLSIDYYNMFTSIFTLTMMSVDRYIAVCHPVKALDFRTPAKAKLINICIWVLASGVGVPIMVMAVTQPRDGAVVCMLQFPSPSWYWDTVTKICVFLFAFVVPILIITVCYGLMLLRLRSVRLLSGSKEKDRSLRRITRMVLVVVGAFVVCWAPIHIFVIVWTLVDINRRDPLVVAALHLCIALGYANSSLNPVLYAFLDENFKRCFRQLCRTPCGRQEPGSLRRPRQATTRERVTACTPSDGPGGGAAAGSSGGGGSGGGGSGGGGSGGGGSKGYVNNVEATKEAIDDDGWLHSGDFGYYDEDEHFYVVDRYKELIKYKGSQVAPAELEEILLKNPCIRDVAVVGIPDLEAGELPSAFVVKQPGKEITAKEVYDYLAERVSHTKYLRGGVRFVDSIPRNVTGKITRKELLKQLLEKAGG
Description: split click beetle luciferase complementation (ClickArr), kinetic read at 508 nm, triply transfected HEK293 cells, 32 µM leu-enkephalin or TAN67.

Experiment [4] has as its target T5, D2R-GSSGGGGSGGGGSGGGGSGGGG-CBGct(395-542) (human).
T5 construct: also called D2R-CBGct; dopamine D2 receptor
T5 chain: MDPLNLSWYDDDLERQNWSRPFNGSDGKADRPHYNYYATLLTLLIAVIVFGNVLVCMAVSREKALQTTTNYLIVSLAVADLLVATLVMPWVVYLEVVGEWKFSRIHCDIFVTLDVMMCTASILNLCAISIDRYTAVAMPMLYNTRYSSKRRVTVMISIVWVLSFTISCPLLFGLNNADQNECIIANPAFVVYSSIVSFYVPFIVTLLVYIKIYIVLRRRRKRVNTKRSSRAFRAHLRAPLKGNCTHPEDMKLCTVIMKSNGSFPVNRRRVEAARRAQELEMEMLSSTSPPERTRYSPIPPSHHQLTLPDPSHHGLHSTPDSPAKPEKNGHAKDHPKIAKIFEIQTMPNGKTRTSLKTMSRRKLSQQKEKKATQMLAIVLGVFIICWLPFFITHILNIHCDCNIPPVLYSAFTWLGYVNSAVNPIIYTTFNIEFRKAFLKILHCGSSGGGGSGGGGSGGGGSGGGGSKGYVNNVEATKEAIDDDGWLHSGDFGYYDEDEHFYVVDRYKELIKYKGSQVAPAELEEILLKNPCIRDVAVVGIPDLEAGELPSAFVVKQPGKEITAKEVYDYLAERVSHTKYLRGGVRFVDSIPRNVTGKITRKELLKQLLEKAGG
Kind of experiment: split click beetle luciferase complementation (ClickArr), triply transfected cells, UNC9994 dose-response, single replicate.

The target in experiment [5] is T6, 3xHA-AGTR1(2-360)-GSSGGGGSGGGGSGGGGSGGGG-CBGct(395-542) (human).
T6 construct: also called AGTR1-CBGct; angiotensin type 1 receptor
T6 chain: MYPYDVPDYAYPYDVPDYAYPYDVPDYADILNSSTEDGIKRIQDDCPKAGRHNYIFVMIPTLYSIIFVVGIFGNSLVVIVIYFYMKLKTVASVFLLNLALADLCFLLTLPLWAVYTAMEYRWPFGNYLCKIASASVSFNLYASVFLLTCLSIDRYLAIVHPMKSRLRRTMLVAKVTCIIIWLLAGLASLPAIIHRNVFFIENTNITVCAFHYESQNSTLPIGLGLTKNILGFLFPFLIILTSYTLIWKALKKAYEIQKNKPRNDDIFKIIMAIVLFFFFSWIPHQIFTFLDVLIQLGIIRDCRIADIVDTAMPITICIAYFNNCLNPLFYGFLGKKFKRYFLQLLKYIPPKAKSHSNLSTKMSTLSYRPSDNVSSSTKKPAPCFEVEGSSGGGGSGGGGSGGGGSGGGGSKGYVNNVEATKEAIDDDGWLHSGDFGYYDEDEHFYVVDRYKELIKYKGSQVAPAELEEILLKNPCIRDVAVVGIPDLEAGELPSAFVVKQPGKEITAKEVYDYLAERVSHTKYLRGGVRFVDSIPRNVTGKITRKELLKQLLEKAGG
Description: split click beetle luciferase complementation (ClickArr), triply transfected cells, angiotensin II dose-response, single replicate.

T1 sequence (P32300 with tags, fused parts or gaps): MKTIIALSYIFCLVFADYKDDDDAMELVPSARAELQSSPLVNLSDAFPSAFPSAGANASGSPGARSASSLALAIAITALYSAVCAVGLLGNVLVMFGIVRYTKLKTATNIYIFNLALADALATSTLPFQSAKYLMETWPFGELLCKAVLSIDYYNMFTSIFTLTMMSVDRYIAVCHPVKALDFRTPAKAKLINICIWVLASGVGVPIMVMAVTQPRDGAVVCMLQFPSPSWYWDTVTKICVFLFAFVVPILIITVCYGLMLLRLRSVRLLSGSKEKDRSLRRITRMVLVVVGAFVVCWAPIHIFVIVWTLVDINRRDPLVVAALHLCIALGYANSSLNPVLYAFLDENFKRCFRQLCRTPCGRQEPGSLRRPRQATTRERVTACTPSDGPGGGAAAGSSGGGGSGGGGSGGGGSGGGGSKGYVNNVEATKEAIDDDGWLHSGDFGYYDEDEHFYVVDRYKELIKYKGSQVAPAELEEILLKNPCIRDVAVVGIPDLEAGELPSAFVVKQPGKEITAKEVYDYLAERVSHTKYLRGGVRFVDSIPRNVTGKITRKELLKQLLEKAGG

With `Br.Br.CN1CC[C@@]2(c3cccc(O)c3)Cc3nc4ccccc4cc3C[C@@H]2C1` (racemic) [TAN67, (R*,S*)-(±)-2-Methyl-4aa-(3-hydroxyphenyl)-1,2,3,4,4a,5,12,12aa-octahydroquinolino[2,3,3-g]isoquinoline dihydrobromide], the “Δ% efficacy Barr1-Barr2 compared to Leu-Enk” value at δ opioid receptor (DOR) (difference in maximum change in signal between arrestin isoforms, as a percentage of Leu-Enk, n=5-6 biological replicates, FIG. 5C) is on record as “significant difference in efficacy”. For the same molecule, the “Kinetics of Barr1 vs Barr2 recruitment (normalized β-arrestin signal over time)” value on δ opioid receptor (DOR) (saturating concentration (32 μM), n=6 replicates, FIGS. 6A, 6B) is reported as “Recruitment of Barr1 is much slower than Barr2”.
Turning to `Cl.Clc1cccc(C2CCN(CCCOc3ccc4scnc4c3)CC2)c1Cl` [UNC9994, 5-(3-(4-(2,3-dichlorophenyl)piperidin-1-yl)propoxy)benzo[d]thiazole hydrochloride], in experiment [1], the “Potency of β-arrestin curves relative to published value” was “as potent or more potent than published values” and the “Response: fold change in dopamine receptor:β-arrestin signal” value is “showed a response”. The EC50 on D2R (Allen et al., PNAS 108(45): 18488-18493 (2011), read-out: Published potency value) was 448 nM. Also, the “log10 of published potency value” at D2R (log10 (M) of 448 nM, Allen et al. 2011) was ~−6.3.

B1: CBGnt(1-415)-SGGGGSGGGGSGGGGSGGGGS-Barr1 (other)
chain: MVKREKNVIYGPEPLHPLEDLTAGEMLFRALRKHSHLPQALVDVVGDESLSYKEFFEATVLLAQSLHNCGYKMNDVVSICAENNTRFFIPVIAAWYIGMIVAPVNESYIPDELCKVMGISKPQIVFTTKNILNKVLEVQSRTNFIKRIIILDTVENIHGCESLPNFISRYSDGNIANFKPLHFDPVEQVAAILCSSGTTGLPKGVMQTHQNICVRLIHALDPRVGTQLIPGVTVLVYLPFFHAFGFSITLGYFMVGLRVIMFRRFDQEAFLKAIQDYEVRSVINVPSVILFLSKSPLVDKYDLSSLRELCCGAAPLAKEVAEVAAKRLNLPGIRCGFGLTESTSANIHSLGDEFKSGSLGRVTPLMAAKIADRETGKALGPNQVGELCIKGPMVSKGYVNNVEATKEAIDDDGWLSGGGGSGGGGSGGGGSGGGGSGDKGTRVFKKASPNGKLTVYLGKRDFVDHIDLVDPVDGVVLVDPEYLKERRVYVTLTCAFRYGREDLDVLGLTFRKDLFVANVQSFPPAPEDKKPLTRLQERLIKKLGEHAYPFTFEIPPNLPCSVTLQPGPEDTGKACGVDYEVKAFCAENLEEKIHKRNSVRLVIRKVQYAPERPGPQPTAETTRQFLMSDKPLHLEASLDKEIYYHGEPISVNVHVTNNTNKTVKKIKISVRQYADICLFNTAQYKCPVAMEEADDTVAPSSTFCKVYTLTPFLANNREKRGLALDGKLKHEDTNLASSTLLREGANREILGIIVSYKVKVKLVVSRGGDVAVELPFTLMHPKPKEEPPHREVPENETPVDTNLIELDTNDDDIVFEDFARQRLKGMKDDKEEEEDGTGSPQLNNR
notes: also called optimized Barr1 construct; CBGnt-Barr1
For B1, the binding result in experiment [2], in experiment [3], in experiment [4] and in experiment [5] was “binds” throughout.
